Test results from patent US11629141B2, “Proteasome inhibitors and uses thereof” (CORNELL UNIVERSITY, priority 2015, dated 2023).
Entries after “also recorded” stand apart in the source; their conditions may differ. Like-named read-outs stand apart in the source and are kept apart here.

What was measured:
P. falciparum schizonts = assay: Accumulation of poly-ubiquitinated proteins in P. falciparum schizonts; format: cell-based; settings: 4 hours post treatment
β1i = molecular target: T1, β1i (Homo sapiens, UniProt P28065); assay: Inhibition of β1i activity; format: biochemical; settings: no inhibition <33 μM
T1 construct: purchased Boston Biochem Inc
Method: (§1) The foregoing features of these AsnEDA encouraged a further round of SAR studies (Table 5) based on varying the carboxylic acid at the ethylenediamine, the N-cap at the Asn, and the side chain of the Asn, based on PKS21004. All compounds listed in the Table 5 were synthesized as described in Examples 6-77. All final compounds were confirmed by NMR and HRMS. IC50s of all compounds against β5i and β5c (Table 5), β1i, β2i, β1c and β2c were determined following a reported method (Lin et al., “N,C-Capped Dipeptides With Selectivity for Mycobacterial Proteasome Over Human Proteasomes: Role of S3 and S1Binding Pockets,” J Am Chem Soc. 135:9968-9971 (2013), which is hereby incorporated by reference in its entirety). […] The [1,1′-biphenyl]-3-carboxamide of PKS21004 was then modified with the following substituents: 4′-fluoro (PKS21026), 4′-cyano (PKS21028), 4-fluoro (PKS21196), 4,3′-difluoro (PKS21195) and 4,2′-difluoro (PKS21187).

β2i = molecular target: T2, β2i (Homo sapiens, UniProt P40306); assay: Inhibition of β2i activity; format: biochemical; settings: no inhibition <33 μM
T2 construct: purchased Boston Biochem Inc
Method: as §1

c-20S β5c = molecular target: T3, c-20S β5c (Homo sapiens, UniProt P28074); assay: Kinetic analysis, substrate titration of c-20S steady state velocities; format: biochemical
T3 construct: purchased Boston Biochem Inc
Method: FIGS. 1A-1E are graphs showing inhibition modality of PKS21004 against human proteasomes. Washout of c-20S from the preincubated c-20S and […] to recover the β5c activity (FIG. 1A). Substrate titration of hu i-20S (FIG. 1B) and c-20S (FIG. 1D) steady state velocities in the presence of PKS21004 at the concentrations indicated next to each curve. Data as in (FIG. 1B) were plotted double reciprocal in (FIG. 1C), and (FIG. 1D) in (FIG. 1E).
A washout experiment was used to confirm the reversibility of this class of proteasome inhibitors, as expected from their non-covalent chemistry.

Pf20S β5 = assay: Labeling of Pf20S active subunits by activity probe MV151 in Pf lysates; format: biochemical, P. falciparum; settings: 1 hour with inhibitor, then MV151 (2 μM) 1 hour
Method: Pf lysates were incubated with inhibitors at indicated concentrations for 1 hour prior to incubation with MV151 (2 μM) for an additional hour. SDS pages were scanned on a Typhoon fluorescent scanner. […] BTZ was used as a positive control.

P. berghei = assay: Killing of P. berghei sporozoite stage in HepG2 cells; format: cell-based; settings: Plasmodium berghei
Plasmodium falciparum = assay: Growth of Plasmodium falciparum in red blood cells (SYBR Green, 72 hours); format: cell-based
Method: Continuous in vitro cultures of Plasmodium falciparum: were maintained in human red blood cells (RBC) diluted to a hematocrit of 5% in RPMI 1640 medium with HEPES and Hypoxanthine and completed with 0.5% Albumax II (Invitrogen), 0.25% sodium bicarbonate, and 0.1 mg/ml gentamicin. Parasites were incubated at 37° C. in a gas mixture of 5% oxygen, 5% carbon dioxide, and 90% nitrogen.
Parasite sensitivity to novel compounds were determined using a SYBR Green (Invitrogen S1046) drug assay protocol. P. falciparum of various clinic stains were cultured with compounds at concentrations in a series of dilution in a clear, sterile 96-well plate for 72 hours. Subsequently, 150 μl of the cultures were transferred to a black 96-well plate and placed in the freezer for red blood cell lysis. The plates were thawed and suspended in a Sybr Green Lysis buffer. GraphPad Prism was used to analyze the raw data collected […]. Drug concentrations were converted to logarithms, normalized, and then curve fitted by non-linear regression to obtain EC50 values.
Plasmodium falciparum: parasites were cultured in human red cells. Drug assays were run in 96 well plates at a total volume of 200 μl. Assays were set up at a starting parasitemia (percent of infected red cells) of 0.5%. Test compounds were plated at concentrations of 2778 nM to 0.4 nM. The test plates were grown under standard low oxygen conditions at 37° C. for 72 hours. At that time the plates were prepared for growth determination, first the plates were frozen and thawed to lyse the red blood cells, 150 μl of the lysed thawed culture was transferred to a black 96 well plate, and mixed in a lysis buffer with SYBR green DNA dye. The fluorescence of each well was recorded in a plate reader with excitation wavelength 490 nm and emission wavelength 530 nm and normalized relative to DMSO control. The EC50s were determined using Prism software.

[1] = molecular target: T4, human immunoproteasome β5i (Homo sapiens, UniProt P28062); assay: IC50 against chymotryptic β5i activity of human immunoproteasome (96-well plate, Ac-ANW-AMC); format: biochemical; settings: β5i; substrate Ac-ANW-AMC; read-out: IC50 Hu i-20S (Ac-ANW-AMC)
T4 construct: purchased Boston Biochem Inc
Method: A 96-well-plate assays were used to determine the IC50s against the chymotryptic β5 activities of the proteasomes. Both human constitutive proteasome and immunoproteasome were purchased from Boston Biochem Inc. 1 μL of 100× compound in DMSO at designated concentrations were spotted at the bottom of the wells. DMSO was used as a control. […] The hydrolysis of the substrate over time in each well was monitored at excitation 360 nm, emission 460 nm for 90 minutes. IC50s were estimated by fitting the velocities of hydrolysis against compound concentrations using PRISM. […] SDS (0.02%) was used as activator, and 0.01% BSA was used in the reaction buffer.

β1c = molecular target: T5, β1c (Homo sapiens, UniProt P28072); assay: Inhibition of β1c activity; format: biochemical; settings: no inhibition <33 μM
T5 construct: purchased Boston Biochem Inc
Method: as §1

β2c = molecular target: T6, β2c (Homo sapiens, UniProt Q99436); assay: Inhibition of β2c activity; format: biochemical; settings: no inhibition <33 μM
T6 construct: purchased Boston Biochem Inc
Method: as §1

## CC(C)(C)NC(=O)C[C@H](NC(=O)CCc1ccccc1)C(=O)NCCNC(=O)c1cccc(-c2ccccc2)c1 [PKS21004]
P. falciparum schizonts
  accumulation of poly-ubiquitinated proteins: accumulation of poly-ubiquitinated proteins
β1i
  IC50 against β1i: no inhibition
β2i
  IC50 against β2i: no inhibition
c-20S β5c
  Ki: 550 nM
c-20S β5c; fit to equation for noncompetitive inhibitors
  α for c-20S: 0.98 and ≈ 0.57
c-20S β5c; with respect to substrate
  modality of inhibition of β5c: noncompetitive inhibitor
Pf20S β5
  labeling of Pf20S β5 by MV151: block labeling; also recorded: inhibited the labeling
P. berghei; read-out: EC50 killing of P. berghei, compound & sporozoites incubated with HepG2, media replaced after 14 hours
  EC50: 21 nM
P. berghei; compound & sporozoites incubated with HepG2, media replaced after 6 hours, read-out: EC50 killing of P. berghei, 6 hours
  EC50: 41 nM
P. berghei; sporozoites pre-treated 30 minutes on ice, added to HepG2, media replaced after 4 hours, read-out: EC50 killing of P. berghei, sporozoites pre-treated (P/T)
  EC50: 157 nM
Plasmodium falciparum; D6, Erythrocyte, read-out: EC50s against P. falciparum strain D6
  EC50: 4 nM
Plasmodium falciparum; DD2, Erythrocyte, read-out: EC50s against P. falciparum strain Dd2
  EC50: 4.8 nM
Plasmodium falciparum; Erythrocyte, P.f. 3D7, growth in red blood cells, read-out: EC50 (nM) (P.f.)
  EC50: 4.6 nM
Plasmodium falciparum; Erythrocyte, read-out: EC50s against P. falciparum strain IPC 3663
  EC50: 6 nM
Plasmodium falciparum; Erythrocyte, read-out: EC50s against P. falciparum strain IPC 4884
  EC50: 5.2 nM
Plasmodium falciparum; Erythrocyte, read-out: EC50s against P. falciparum strain IPC 4912
  EC50: 5.8 nM
Plasmodium falciparum; Erythrocyte, read-out: EC50s against P. falciparum strain IPC 5188
  EC50: 1.5 nM
Plasmodium falciparum; Erythrocyte, read-out: EC50s against P. falciparum strain Sb1-a6
  EC50: 4.8 nM
Plasmodium falciparum; Erythrocyte, read-out: EC50s against P. falciparum strain V1S
  EC50: 1.7 nM
Plasmodium falciparum; HB3, Erythrocyte, read-out: EC50s against P. falciparum strain HB3
  EC50: 10 nM
[1]
  IC50: 58 nM
β1c
  IC50 against β1c: no inhibition
β2c
  IC50 against β2c: no inhibition
